Results from patent US20230263822A1, “MODULATION OF FACTOR 11 EXPRESSION” (Ionis Pharmaceuticals, Inc., priority 2008, published 2023).

Tests used:
[1] = test system: platelet factor-4 (PF-4); test: Thrombus formation by PF-4 real-time PCR, FeCl3 induced venous thrombosis model vs warfarin (Example 11); assay type: in vivo, BALB/c mice; conditions: for PF-4 in vena cava, percentage as compared to PBS controls (thrombus formation): + FeCl3
Method: (§1) Two control groups of BALB/c mice were treated with PBS, administered subcutaneously twice a week for 3 weeks. Two days after the last dose of PBS, mice in both groups were anesthetized with 150 mg/kg ketamine mixed with 10 mg/kg xylazine administered by intraperitoneal injection. Thrombus formation was induced with FeCl3 in all groups of mice except the first control group.
(§2) In mice undergoing FeCl3 treatment, thrombus formation was induced by applying a piece of filter paper (2×4 mm) pre-saturated with 10% FeCl3 solution directly on the vena cava. After 3 minutes of exposure, the filter paper was removed. Thirty minutes after the filter paper application, a fixed length of the vein containing the thrombus was dissected out for platelet analysis. Liver was collected for RNA analysis.
Real-time PCR quantification of platelet factor-4 (PF-4) was used to quantify platelets in the vena cava as a measure of thrombus formation.

[2] = Tail bleeding assay vs warfarin (Example 12)
Method: A separate control group of BALB/c mice was treated with PBS, administered subcutaneously twice a week for 3 weeks.
Mice were anesthetized in the chamber with isoflurane and a small piece of tail (approximately 4 mm from the tip) was cut with sterile scissors. The tail cut was immediately placed in a 15 mL Falcon tube filled with approximately 10 mL of 0.9% NaCl buffer solution warmed to 37° C. The blood was collected over the course of 40 minutes. The saline filled tubes were weighed both before and after bleeding.

[3] = test system: blood coagulation; test: PT and aPTT vs warfarin (Example 13); assay type: in vivo, BALB/c mice; conditions: for aPTT INR / PT INR: PPP two days after final dose
Method: In a control group, BALB/c mice were treated with PBS, administered subcutaneously mice twice a week for 3 weeks.
Two days after the final dose was administered, PPP was collected and PT and aPTT assays were performed.
PT and aPTT values provided in Table 16 are reported as International Normalized Ratio (INR) values. […] This ratio was then raised to the power of the International Sensitivity Index (ISI) of the tissue factor used.

[4] = test system: Factor 11 mRNA; test: Factor 11 mRNA in liver, FeCl3 induced venous thrombosis model vs warfarin (Example 11); assay type: in vivo, BALB/c mice; conditions: FeCl3 induced VT model; ISIS 404071 1.25-40 mg/kg s.c. twice a week 3 weeks; warfarin 0.5-5 mg/kg daily 6 days
Method: as §1, §2
RNA was extracted from liver tissue for real-time PCR analysis of Factor 11.

[5] = test system: blood coagulation; test: PT and aPTT, combination with warfarin (Example 21); assay type: in vivo, BALB/c mice
Method: Plasma was collected from each group 5 days after the last dose was administered. […] In a final group of BALB/c mice, PBS was administered subcutaneously twice a week for three weeks, as a control. Plasma was collected 5 days after the last PBS treatment.
PT and aPTT values provided in Table 33 are reported as International Normalized Ratio (INR) values.

[6] = Collagenase-induced intracerebral hemorrhage model: hemorrhage volume, neurologic deficit score, mortality (Example 25); assay type: in vivo, BALB/c mice; conditions: ISIS oligonucleotides 40 mg/kg s.c., warfarin 2 mg/kg intraperitoneally, twice a week for two weeks
Method: In a first cohort, ISIS 404071 was administered subcutaneously to BALB/c mice twice a week for two weeks at a dose 40 mg/kg. […] In a third cohort, ISIS 421208 ([…], 8 mismatches to murine Factor 11, incorporated herein as SEQ ID NO: 14) was administered subcutaneously to BALB/c mice twice a week for two weeks at a dose 40 mg/kg. In a fourth cohort, PBS was administered to BALB/c mice twice a week for two weeks.
Two days after receiving their final dose, all mice in all cohorts were anesthetized with […] of avertin. Next, the mice were injected at −1 mm AP, 1 mm R ML, −4 mm DV from bregma flat skull with a 10 μL Hamilton syringe containing 0.075 U collagenase (150 U/mL). Collagenase was delivered over 5 minutes and the needle was kept in place for an additional 5 minutes to prevent reflux. The mice were then analyzed for hemorrhagic size, neurologic deficit score, and mortality.
Table 37 presents the hemorrhage volume detected in mice after collagenase treatment, Table 38 presents the neurologic deficit score of the mice, and Table 39 presents the mortality rate of the mice. Neurological deficit is measured by a standard scoring system where no deficiency is zero and severe deficit is five.

[7] = test system: mesenteric vein thrombosis; test: Mesenteric vein thrombosis, intravital microscopy (Example 22); assay type: in vivo; conditions: C57BL/6 mice, 50 mg/kg s.c. twice a week for three weeks, 10% FeCl3 on mesenteric vein
Method: In a first cohort, ISIS 404071 was administered subcutaneously to C57BL/6 mice twice a week for three weeks at a dose of 50 mg/kg. In a second cohort, a control oligonucleotide, ISIS 405277 ([…]; antisense oligonucleotide for Factor 2), incorporated herein as SEQ ID NO: 12 was administered subcutaneously to C57Bl/6 mice twice a week for three weeks at a dose of 50 mg/kg.
Blood was collected from the retro-orbital venous plexus of naïve C57BL/6 mice by puncture and collected in polypropylene tubes containing 300 μl of heparin (30 U/ml). Platelet rich plasma (PRP) was obtained by centrifugation at 1000 rpm for 5 min. The PRP was transferred to fresh tubes containing 2 μl of Prostaglandin I2 (PGI2) (2 μg/ml) and incubated at 37° C. for 5 min. After centrifugation at 2600 rpm, pellets were resuspended in 1 ml modified Tyrode's-HEPES buffer (137 mM NaCl, 0.3 mM Na2HPO4, 2 mM KCl, 12 mM NaHCO3, 5 mM HEPES, 5 mM glucose, 0.35% BSA, pH 7.2) containing 2 μl of PGI2 and incubated at 37° C. for 5 min. The suspended pellet was centrifuged at 2600 rpm for 5 min. To remove PGI2, the washing step was repeated twice and platelets were fluorescently labeled with calcein AM 2.5 μg/mL (Molecular Probes, Eugene, Oreg.) for 10 min at room temperature.
Fluorescently-labeled platelets were injected intravenously in ISIS 404071 treated and control oligonucleotide treated C57BL/6 mice. […] The exposed mesentery was kept moist throughout the experiment by periodic superfusion with warmed (37° C.) PBS. The mesentery was transluminated with a 12V, 100 W, DC stabilized source. Veins were visualized using a Zeiss (Germany) Axiovert 135 inverted microscope (Objective 32X) connected to an SVHS video recorder (AG-6730; Panasonic, Tokyo, Japan) using a CCD video camera (Hamamatsu Photonic Systems, Hamamatsu City, Japan). Centerline erythrocyte velocity (Vrbc) was measured using an optical Doppler velocimeter (Microcirculation Research Institute, Texas A&M College of Medicine, College Station, Tex.). Venular shear rate (τ) was calculated based on Poiseuille's Law for a newtonian fluid, τ=8(Vmean/Dv), where Dv is the diameter of the venule and Vmean is estimated from the measured Vrbc using the empirical correlation Vmean=Vrbc/1.6.
Mesenteric vein thrombosis was performed two days after the last antisense oligonucleotide injection. Thrombosis was induced by applying Whatman paper soaked in a 10% FeCl3 solution for 5 minutes on the mesenteric vein. The vein was monitored for 40 minutes, or until occlusion. The elapsed time before the first thrombus 30-50 μm in diameter and the elapsed time before blood stopped flowing for 30 seconds were observed.

[8] = Warfarin 0.5 mg/kg intraperitoneally daily for 6 days
[9] = Warfarin 1 mg/kg intraperitoneally daily for 6 days
[10] = Warfarin 2 mg/kg intraperitoneally daily for 6 days
[11] = Warfarin 3 mg/kg intraperitoneally daily for 6 days
[12] = Warfarin 4 mg/kg intraperitoneally daily for 6 days
[13] = Warfarin 5 mg/kg intraperitoneally daily for 6 days
[14] = BALB/c mice, ISIS 404071 1.25-40 mg/kg, warfarin 0.5-5 mg/kg
[15] = BALB/c mice, ISIS 404071 25 or 50 mg/kg, warfarin 2 mg/kg
[16] = Warfarin 2 mg/kg once daily for 5 days

For `CC(=O)CC(c1ccccc1)c1c(O)c2ccccc2oc1=O` (centres unmarked) [warfarin], the “PF-4 in vena cava as measure of thrombus formation” value ([1]; FeCl3 induced VT model, vs PBS control) was “reduction of PF-4 in comparison to the PBS control for dosages of 2 mg/kg and higher”, the “PF-4 in vena cava, percentage as compared to PBS controls (thrombus formation)” value (“PF-4 in vena cava, percentage” below) [1, 8] was 128% and the “PF-4 in vena cava, percentage” value [1, 9] was 124%. For the same molecule, the “PF-4 in vena cava, percentage” value [1, 10] was 80%, the “PF-4 in vena cava, percentage” value [1, 11] was 21% and the “PF-4 in vena cava, percentage” value [1, 12] was 12%. The “PF-4 in vena cava, percentage” value [1, 13] was 33%, the “bleeding in tail bleeding assay” value ([2]; BALB/c mice, compared to PBS treated mice) was “did increase bleeding” and the “Blood (tail bleeding, collected over 40 minutes)” value [2, 8] was 0.07 g. The “Blood (tail bleeding, collected over 40 minutes)” value [2, 9] was 0.35 g, the “Blood (tail bleeding, collected over 40 minutes)” value [2, 10] was 0.39 g and the “Blood (tail bleeding, collected over 40 minutes)” value [2, 11] was 0.51 g. For the same molecule, the “Blood (tail bleeding, collected over 40 minutes)” value [2, 12] was 0.52 g, the “Blood (tail bleeding, collected over 40 minutes)” value [2, 13] was 0.76 g and the “PT” value [3, 14] was “significantly prolonged at every dosage”. For the same molecule, the “aPTT” value [3, 14] was “prolonged, particularly at dosages of 1 mg/kg and higher”, the “aPTT INR” value [3, 8] was 1.10 INR and the “PT INR” value [3, 9] was 2.03 INR. For the same molecule, the “aPTT INR” value [3, 9] was 1.31 INR, the “PT INR” value [3, 10] was 2.77 INR and the “aPTT INR” value [3, 10] was 1.54 INR. The “PT INR” value [3, 11] was 22.76 INR, the “aPTT INR” value [3, 11] was 2.90 INR and the “PT INR” value [3, 12] was 6.74 INR. The “aPTT INR” value [3, 12] was 2.18 INR, the “PT INR” value [3, 13] was 9.20 INR and the “aPTT INR” value [3, 13] was 2.29 INR. For the same molecule, the “Factor 11 mRNA in liver vs PBS control” value [4] was “did not result in significant reduction of Factor 11”, the “PT” value [5, 15] was “increase PT” and the “aPTT” value [5, 15] was “affected”. The “PT INR” value [5, 16] was 21.33 INR, the “aPTT INR” value [5, 16] was 2.52 INR and the “% mortality after collagenase treatment” value [6] was 80%.
With “ISIS 405277: control oligonucleotide AAGGACCTACACTATGGAAT; antisense oligonucleotide for Factor 2 (listed as DNA, chemistry not given here) [reference compound]” the “time of occlusion (occlusive thrombi)” value [7] was 19.3 ± 0.8 min and the “time of thrombus formation (30 μm in diameter)” value [7] was 8.9 ± 0.6 min.
